# Test results as given in patent US20230168203A9, “Pyrogallarene Chelating and Sequestering Agents” (Kinsey Spiel, priority 2018, published 2023).
# Read-outs that look alike come from different tables or passages of the source.
# Key:
# [1] = Solid state contact of nearly dry pyrogallarenes with stainless steel spatula; conditions: freshly-synthesized
# Excerpt: Pyrogallarenes, including C-methyl Pyrogallol[4]arene, C-ethyl Pyrogallol[4]arene, and C-propyl pyrogallol[4]arene, have a high affinity for metals, even in a homogeneous solid state reaction. For example, a stainless steel spatula in contact with these freshly-synthesized and not completely dry (nearly dry) pyrogallarenes results in a color shift from white to blue where the spatula came in contact with the pyrogallol[4]arene. This example may illustrate, as in previous examples, that a chelation reaction has occurred.
# [2] = remark: listed apart in the source
# Protocol: A stock solution of was made of 100 mg of purified C-ethyl pyrogallol[4]arene dissolved in 20 mL of acetone. 1 mL aliquots of this stock solution were dispensed into vials containing 20 mL of water. Sample one contained TDS of 330, Ca of 30 ppm, Mg of 26 ppm, K of 1 ppm, Si of 15 ppm, bicarbonate of 360 ppm, Pb of <0.001, and a pH of 7.2. Sample two contained TDS of 222, Ca of 18 ppm, Mg of 15 ppm, K of 5.3 ppm, Si of 93 ppm, bicarbonate of 152 ppm, and a pH of 7.7. Sample three contained TDS of 44, Ca of 5 ppm, Mg of 1 ppm, K of 0 ppm, bicarbonate of 20 ppm, and a pH of 7.8.
# [3] = Example C: C-ethyl pyrogallol[4]arene colloid (from acetone stock) after adding chloride salts
# Protocol: Upon dispensing this aliquot the aqueous solutions were colorless white colloids. Various chloride salts were added to the solution including […], Tungsten(IV) chloride, Strontium chloride, Titanium chloride, Zirconyl (IV) chloride octahydrate, Aluminum chloride, and Hafnium chloride. All metal salts were colorless except Tungsten(IV) chloride, which was light green, and Titanium chloride, which was a yellow solution. […] All other colloids appeared unchanged immediately after the addition of the metal. This may be a result of no chelation or slow reaction kinetics for the chelated complex. Finally, one additional salt, colorless Gadolinium Chloride, was tested. […] As stated previously, various examples may indicate chelation and sequestration by pyrogallarenes on a PPM level, owing to the solubility of various chloride salts. For example, PbCl2 is very poorly soluble in water.
# [4] = Heterogeneous chelation: solid pyrogallol[4]arene dispensed into unpurified aqueous solution
# [5] = Example B: precipitate formation of C-ethyl pyrogallarene colloid (from saturated methanol) after adding metal chlorides
# Excerpt: Some metals required more time for a precipitate to form.
# [6] = Example A: colour of C-propyl pyrogallol[4]arene colloid in deionized water after adding metal chloride salts (chelation indicator)
# Protocol: A stock solution of was made of 400 mg of purified C-propyl pyrogallol[4]arene dissolved in 20 mL of acetone. […] Upon dispensing this aliquot the aqueous solutions were a colorless white colloid. The colloid appeared to be somewhat translucent. Upon dispensing NaCl into one colorless colloid the color was unchanged. Then various chloride salts of metals were added to colorless C-propyl pyrogallol[4]arene colloids. Upon adding ZnCl2 the colloid turned light brown. Upon adding MgCl2 the colloid turned pink. Upon adding Fe(III)Cl3 the colloid turned grey. Upon adding Cu(I)Cl the colloid turned brown. Upon adding CaCl2 the colloid turned pink. Upon adding Cr(III)Cl3 the colloid turned green. Upon adding BaCl2.2H2O the colloid turned pink. Upon adding MnCl2 the colloid turned salmon. Upon adding NiCl2 the colloid turned salmon.
# In Example A, half of the metal salts, ZnCl2, MgCl2, CaCl2, and BaClz.2H2O, were colorless in their solid form, before adding them to the colloid. Pyrogallarene chelation is evident as a colorless salts are added to a colorless colloid and varying colors result. Five of the salts were colored in their solid form. […] Although Fe(III)Cl3 was brownish red in its solid form the resulting colloid solution was grey. Cu(I)Cl was green in its solid form but the resulting colloid solution was brown. NiCl2 was green in its solid form but the resulting colloid solution was pink.
# [7] = Resilience of chelated precipitate at high temperature; format: physicochemical
# Protocol: Unlike some solids where solubility increases rapidly with increasing temperature the pyrogallarene chelated precipitate is resilient at high temperature. […] A chelate made from C-propyl pyrogallol[4]arene and a variety of metals is also undissolved at 80° C. […] However, heterogeneous pyrogallol[4]arene chelation complexes appear to dissolve minimally into aqueous solutions, limited by a low Ksp as discussed above.
smiles,measurement,setting,value
CCC1c2cc(c(O)c(O)c2O)C(CC)c2cc(c(O)c(O)c2O)C(CC)c2cc(c(O)c(O)c2O)C(CC)c2cc1c(O)c(O)c2O (centres unmarked) [C-ethyl pyrogallol[4]arene],color shift where spatula came in contact,[1],white to blue
same,solubility in water,,mostly insoluble
same,observation on water sample,[2]; Sample four: pH 9.4,pink colored solution
same,observation on water sample,"[2]; Sample one: TDS 330, Ca 30 ppm, Mg 26 ppm, pH 7.2",dense blue precipitate
same,observation on water sample,"[2]; Sample three: TDS 44, Ca 5 ppm, Mg 1 ppm, pH 7.8, several days",did not produce a precipitate
same,observation on water sample,"[2]; Sample two: TDS 222, Ca 18 ppm, Mg 15 ppm, pH 7.7, over a few minutes",diffuse blue precipitate
same,observation on colloid,"[3]; Aluminum chloride added, immediately after addition",unchanged
same,observation on colloid,[3]; Gadolinium Chloride added,purple precipitate
same,observation on colloid,[3]; Hafnium chloride added,grey precipitate
same,observation on colloid,[3]; Strontium chloride added,white precipitate
same,observation on colloid,"[3]; Titanium chloride added, immediately after addition",unchanged
same,observation on colloid,"[3]; Tungsten(IV) chloride added, immediately after addition",unchanged
same,observation on colloid,[3]; Yttrium(II) chloride hydrate added,purple precipitate
same,observation on colloid,[3]; Zirconyl (IV) chloride octahydrate added,clear grey solution
same,dissolution of solid,[4]; solid in unpurified aqueous solution,almost completely undissolved
same,shift of absorbance colour of solid,"[4]; solid, colorless compound in unpurified aqueous solution",blue
same,precipitate formed,"[5]; BaClz.2H2O, 24 hours later",white precipitate
same,precipitate formed,"[5]; CaCl2 added, immediately",blue precipitate
same,precipitate formed,"[5]; Cr(III)Cl3, 24 hours later",white precipitate
same,precipitate formed,"[5]; Cu(I)Cl, 24 hours later",grey precipitate
same,precipitate formed,"[5]; NiClz, 24 hours later",white precipitate
same,precipitate formed,"[5]; PbCl2 added, immediately",blue precipitate
same,precipitate formed,"[5]; ZnCl2 added, immediately",blue precipitate
CC1c2cc(c(O)c(O)c2O)C(C)c2cc(c(O)c(O)c2O)C(C)c2cc(c(O)c(O)c2O)C(C)c2cc1c(O)c(O)c2O (centres unmarked) [C-methyl Pyrogallol[4]arene],color shift where spatula came in contact,[1],white to blue
CCCC1c2cc(c(O)c(O)c2O)C(CCC)c2cc(c(O)c(O)c2O)C(CCC)c2cc(c(O)c(O)c2O)C(CCC)c2cc1c(O)c(O)c2O (centres unmarked) [C-propyl pyrogallol[4]arene],color shift where spatula came in contact,[1],white to blue
same,solubility in water,,only slightly soluble
same,colour of colloid,[6]; BaCl2.2H2O added,pink
same,colour of colloid,[6]; CaCl2 added,pink
same,colour of colloid,[6]; Cr(III)Cl3 added,green
same,colour of colloid,[6]; Cu(I)Cl added,brown
same,colour of colloid,[6]; Fe(III)Cl3 added,grey
same,colour of colloid,[6]; MgCl2 added,pink
same,colour of colloid,[6]; MnCl2 added,salmon
same,colour of colloid,[6]; NaCl added,unchanged
same,colour of colloid,[6]; NiCl2 added,salmon
same,colour of colloid,[6]; ZnCl2 added,light brown
same,stability of chelate,"[7]; chelate with PbCl2, 80° C",stable and undissolved
same,stability of chelate,"[7]; chelate with a variety of metals, 80° C",undissolved
